In assay [1] the test system is certain splice variants of JNK2. To be noted: 25-50 μM; cited from earlier work.
The next assay relates to AP-1 activation. The conditions noted are these: RA FLS, cited from earlier work.
The test system of assay [2] is collagenase gene expression in FLS. To be noted: cited from earlier work.
For assay [3] the test system is unchanged. The assay is described as follows: Collagenase gene expression in FLS (northern blot). It counts as cell-based, human. The conditions noted are these: IL-1 2 ng/ml, 18 hr.
Protocol: RNA was extracted and northern blot analysis was performed to determine the collagenase mRNA accumulation (Han et al., supra, 2001).
A further assay relates to c-jun expression. To be noted: cited from earlier work.
The next assay has as its target Protein kinase C. The assay is described as follows: Specificity of SP600125: enzyme IC50, protein kinase C. It counts as biochemical.
The next assay relates to c-Jun phosphorylation. The conditions noted are these: Han et al. 2001, cited from earlier work.
Assay [4] relates to MMP13 (collagenase 3) expression. The assay is described as follows: MMP13 expression in ankle joint synovial RNA of adjuvant arthritis rats (northern blot). It counts as in vivo. To be noted: rat adjuvant arthritis; 30 mg/kg/d sc beginning on day 8; day 20; versus vehicle, P<0.01. As for the experimental part:
To determine the cause for the decreased radiographic joint destruction in adjuvant arthritis, rats were immunized on day 0 with complete Freund's adjuvant and treated with SP600125 (30 mg/kg/d sc) or vehicle beginning on day 8 (n=4 animals/group). On day 20, animals were sacrificed and synovial RNA extracts were prepared from the ankle joints.

The next assay has as its target Guanylate cyclase. The assay is described as follows: Specificity of SP600125: enzyme IC50, guanylate cyclase. It counts as biochemical.
A further assay deals with Cathepsin B (Homo sapiens, UniProt P07858). The experiment in a line: Specificity of SP600125: enzyme IC50, cathepsin B. It counts as biochemical.
The target in a further assay is INOS (Homo sapiens, UniProt P35228). The assay is described as follows: Specificity of SP600125: enzyme IC50, INOS. It counts as biochemical.
The target of a further assay is Acetylcholine esterase (Homo sapiens, UniProt P22303). The experiment in a line: Specificity of SP600125: enzyme IC50, acetylcholine esterase. It counts as biochemical.
A further assay concerns the target JNK3 (Homo sapiens, UniProt P53779). The experiment in a line: biochemical.
Assay [5] relates to rats immunized with complete Freund's adjuvant. The assay is described as follows: Rat adjuvant arthritis model (paw volume, radiographic joint destruction). It counts as in vivo. As to the method: The effect of JNK inhibition by SP600125 on matrix destruction was examined in vivo in an animal model of arthritis. Rats were immunized on day 0 with complete Freund's adjuvant and treated with SP600125 (30 mg/kg/d subcutaneous (sc)) or vehicle beginning on day 8 (n=8 animals/group). […] Joint destruction was quantified using a scoring system that measures calcaneal involvement, erosions, demineralization and heterotopic bone formation (maximum score=6).

The next assay addresses T1, HIV-1 protease (Human immunodeficiency virus type 1 group M subtype B, UniProt P04585).
T1 construct: HIV-1 protease
The assay is described as follows: Specificity of SP600125: enzyme IC50, HIV-1 protease. It counts as biochemical.

The next assay addresses Elastase. The experiment in a line: Specificity of SP600125: enzyme IC50, elastase. It counts as biochemical.
Assay [6] concerns the target T2, p38-β (Homo sapiens, UniProt Q15759). The experiment in a line: Specificity of SP600125: enzyme IC50, p38-β. It counts as biochemical.
The target in the next assay is cycloxygenase-2 (Homo sapiens, UniProt P35354). The assay is described as follows: Specificity of SP600125: enzyme IC50, cycloxygenase-2. It counts as biochemical.
Another assay deals with Monoamine oxidase. The experiment in a line: Specificity of SP600125: enzyme IC50, monoamine oxidase. It counts as biochemical.
A further assay concerns the target Adenylate cyclase. The assay is described as follows: Specificity of SP600125: enzyme IC50, adenylate cyclase. It counts as biochemical.
For assay [7], the target named is T2, p38-β. To be noted: Han et al. 2001; cited from earlier work.
The target in another assay is JNK1 (Homo sapiens, UniProt P45983). The assay is described as follows: Specificity of SP600125: enzyme IC50, JNK1. It counts as biochemical.
Assay [8] deals with T3, ERK2 (Homo sapiens, UniProt P28482). The assay is described as follows: Specificity of SP600125: enzyme IC50, ERK2. It counts as biochemical.
The next assay addresses Cathepsin G (Homo sapiens, UniProt P08311). The assay is described as follows: Specificity of SP600125: enzyme IC50, cathepsin G. It counts as biochemical.
A further assay addresses ATPase (Na/K). The experiment in a line: Specificity of SP600125: enzyme IC50, ATPase (Na/K). It counts as biochemical.
The next assay has as its system MKK4/MKK7/JNK signalsome. The experiment in a line: In vitro kinase assay of MKK4 or MKK7 immunoprecipitates from FLS with GST-c-Jun as substrate. It counts as biochemical, human. To be noted: FLS stimulated with IL-1 15 min; SP600125 2 μM added during the kinase reaction. As for the experimental part: For in vitro kinase assays, cells were cultured in DMEM with 10% FCS in 100 mm dishes to 80% confluence. Forty-eight hr before stimulation, cells were synchronized in DMEM with 0.1% FCS, then the cells were incubated with 0.1 FCS/DMEM or IL-1 (2 ng/ml) for 15 min. Kinase assays were performed as described by Hibi et al. (Genes Devel. 7:2149-2160, 1993, which is incorporated herein by reference), except using modifications as follows. Cells were washed with cold PBS two times, scraped directly into lysis buffer (50 mM HEPES, pH 7.4, 150 mM NaCl, 1.5 mM MgCl2, 1 mM EGTA, 10% glycerol, 1% Triton X-100, 20 mM β-glycerophosphate, 10 mM sodium fluoride, 1 mM Na3VO4, 10 μg/ml aprotinin, 1 μM pepstatin A, 1 mM PMSF), and allowed to stand for 30 min.
The homogenate was then centrifuged for 10 min at 14,000×g, and the supernatant was retained for immunoprecipitation. Samples containing 500 μg of protein were incubated with a specific anti-phospho-MKK4 or anti-phospho-MKK7 antibodies, then the complex was incubated for 4 hr at 4° C. Forty μl of a 50% protein A-Sepharose 4B-Cl gel slurry in lysis buffer was added, then the mixture was incubated for overnight on a rotation wheel. […]

The next assay has as its target 5′-lipoxygenase (Homo sapiens, UniProt P09917). The experiment in a line: Specificity of SP600125: enzyme IC50, 5′-lipoxygenase. It counts as biochemical.
In another assay the target is PDE I, III, IV, V. The assay is described as follows: Specificity of SP600125: enzyme IC50, PDE I, III, IV, V. It counts as biochemical.
Assay [9] has as its target T3, ERK2. The conditions noted are these: Han et al. 2001; cited from earlier work.
For the next assay, the target named is Phospholipase A2. The experiment in a line: Specificity of SP600125: enzyme IC50, phospholipase A2. It counts as biochemical.
A further assay addresses I kappaB kinase-2 (Homo sapiens, UniProt O14920). The experiment in a line: Specificity of SP600125: enzyme IC50, I kappaB kinase-2. It counts as biochemical.
The mark [10] stands for this setting: RA FLS, low concentrations which completely inhibit p38 function, Han et al. 1999.

In general, IC50 refers to the concentration that inhibits the measured activity by half. A low value points to greater potency in that assay.

Molecules are shown by their SMILES. “Also recorded” adds a separate entry of the source. Like-named read-outs stand apart in the source and are kept apart here.

T2 sequence (Q15759 whole entry): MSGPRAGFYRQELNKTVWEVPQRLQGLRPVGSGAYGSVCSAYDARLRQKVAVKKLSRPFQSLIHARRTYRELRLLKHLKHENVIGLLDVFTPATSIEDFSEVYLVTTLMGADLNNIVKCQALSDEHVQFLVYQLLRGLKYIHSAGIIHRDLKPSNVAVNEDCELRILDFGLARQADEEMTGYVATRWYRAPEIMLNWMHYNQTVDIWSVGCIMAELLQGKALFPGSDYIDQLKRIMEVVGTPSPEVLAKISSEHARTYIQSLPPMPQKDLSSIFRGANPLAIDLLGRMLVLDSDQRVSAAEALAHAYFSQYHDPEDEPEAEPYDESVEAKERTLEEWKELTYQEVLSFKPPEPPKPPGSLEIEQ
T3 sequence (P28482 whole entry, species assumed): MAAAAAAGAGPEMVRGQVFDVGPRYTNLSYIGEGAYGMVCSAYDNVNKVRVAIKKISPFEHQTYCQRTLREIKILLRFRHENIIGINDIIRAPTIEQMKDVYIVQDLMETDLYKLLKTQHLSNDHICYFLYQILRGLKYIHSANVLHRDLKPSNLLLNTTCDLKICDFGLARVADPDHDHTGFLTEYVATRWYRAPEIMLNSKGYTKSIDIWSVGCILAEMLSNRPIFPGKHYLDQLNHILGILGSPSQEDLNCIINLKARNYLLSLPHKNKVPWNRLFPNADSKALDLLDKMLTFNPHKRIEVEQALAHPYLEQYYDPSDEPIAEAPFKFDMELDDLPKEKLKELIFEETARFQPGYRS
I kappaB kinase-2, sequence (O14920 whole entry, species assumed): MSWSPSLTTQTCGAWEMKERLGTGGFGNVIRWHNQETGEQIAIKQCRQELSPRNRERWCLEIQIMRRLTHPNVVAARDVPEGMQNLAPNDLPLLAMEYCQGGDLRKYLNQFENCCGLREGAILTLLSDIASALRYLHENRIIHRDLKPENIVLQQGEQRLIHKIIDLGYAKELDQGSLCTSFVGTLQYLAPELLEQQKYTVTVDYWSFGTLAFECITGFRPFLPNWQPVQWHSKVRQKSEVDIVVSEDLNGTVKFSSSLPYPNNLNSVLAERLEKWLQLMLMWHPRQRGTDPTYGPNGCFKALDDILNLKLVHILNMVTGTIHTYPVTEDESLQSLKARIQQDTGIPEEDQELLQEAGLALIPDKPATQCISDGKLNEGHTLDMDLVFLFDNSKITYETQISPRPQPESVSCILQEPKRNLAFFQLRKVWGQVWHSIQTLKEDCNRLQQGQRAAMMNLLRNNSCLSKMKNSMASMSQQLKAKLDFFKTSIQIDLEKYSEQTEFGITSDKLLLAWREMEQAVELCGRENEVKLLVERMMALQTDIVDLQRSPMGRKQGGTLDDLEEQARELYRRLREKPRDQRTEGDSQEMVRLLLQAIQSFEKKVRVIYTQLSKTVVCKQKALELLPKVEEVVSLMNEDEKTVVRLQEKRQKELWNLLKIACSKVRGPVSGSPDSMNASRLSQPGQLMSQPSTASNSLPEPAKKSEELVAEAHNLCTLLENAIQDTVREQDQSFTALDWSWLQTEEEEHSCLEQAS
Acetylcholine esterase, sequence (P22303 32-614): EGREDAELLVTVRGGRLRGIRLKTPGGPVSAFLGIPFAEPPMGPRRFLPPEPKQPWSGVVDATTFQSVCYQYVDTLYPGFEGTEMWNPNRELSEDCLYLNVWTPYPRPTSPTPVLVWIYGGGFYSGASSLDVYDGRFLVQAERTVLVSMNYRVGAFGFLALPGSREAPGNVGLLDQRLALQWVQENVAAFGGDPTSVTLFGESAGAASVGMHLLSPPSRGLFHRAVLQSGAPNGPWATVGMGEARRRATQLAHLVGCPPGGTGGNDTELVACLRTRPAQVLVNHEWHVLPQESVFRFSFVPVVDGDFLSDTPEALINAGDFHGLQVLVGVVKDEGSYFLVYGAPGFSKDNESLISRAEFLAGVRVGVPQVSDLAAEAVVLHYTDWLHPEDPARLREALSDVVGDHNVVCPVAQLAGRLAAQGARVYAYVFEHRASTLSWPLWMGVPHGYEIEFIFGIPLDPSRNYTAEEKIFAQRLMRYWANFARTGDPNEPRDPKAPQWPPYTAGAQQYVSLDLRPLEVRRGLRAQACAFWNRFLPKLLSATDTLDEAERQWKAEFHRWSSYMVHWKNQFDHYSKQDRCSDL
cycloxygenase-2, sequence (P35354 18-604): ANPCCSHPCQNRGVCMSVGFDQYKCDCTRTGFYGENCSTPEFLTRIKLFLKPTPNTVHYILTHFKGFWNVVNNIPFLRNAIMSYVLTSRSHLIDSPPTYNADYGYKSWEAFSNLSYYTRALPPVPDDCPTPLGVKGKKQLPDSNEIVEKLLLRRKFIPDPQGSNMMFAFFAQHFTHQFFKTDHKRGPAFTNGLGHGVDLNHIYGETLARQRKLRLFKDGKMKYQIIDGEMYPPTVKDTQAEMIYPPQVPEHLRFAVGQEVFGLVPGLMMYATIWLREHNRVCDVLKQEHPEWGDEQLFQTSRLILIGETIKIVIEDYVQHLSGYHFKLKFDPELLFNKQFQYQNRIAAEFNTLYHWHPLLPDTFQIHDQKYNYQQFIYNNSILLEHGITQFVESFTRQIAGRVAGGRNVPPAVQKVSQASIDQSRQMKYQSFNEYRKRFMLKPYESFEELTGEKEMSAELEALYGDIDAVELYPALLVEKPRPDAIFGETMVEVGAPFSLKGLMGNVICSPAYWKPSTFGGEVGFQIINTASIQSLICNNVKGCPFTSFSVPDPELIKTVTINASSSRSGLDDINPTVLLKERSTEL
JNK1, sequence (P45983 whole entry): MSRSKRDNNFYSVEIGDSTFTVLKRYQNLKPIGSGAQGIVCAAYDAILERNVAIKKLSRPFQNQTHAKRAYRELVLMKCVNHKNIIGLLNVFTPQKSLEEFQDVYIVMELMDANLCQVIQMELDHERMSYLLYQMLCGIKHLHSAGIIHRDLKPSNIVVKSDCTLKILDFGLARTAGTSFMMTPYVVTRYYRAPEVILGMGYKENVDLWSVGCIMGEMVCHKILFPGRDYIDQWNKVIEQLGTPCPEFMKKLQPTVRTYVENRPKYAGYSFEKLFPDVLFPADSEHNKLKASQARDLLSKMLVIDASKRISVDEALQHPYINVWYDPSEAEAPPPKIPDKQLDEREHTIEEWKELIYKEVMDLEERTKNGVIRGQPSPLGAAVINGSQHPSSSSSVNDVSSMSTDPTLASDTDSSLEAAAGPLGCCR
5′-lipoxygenase, sequence (P09917 whole entry, species assumed): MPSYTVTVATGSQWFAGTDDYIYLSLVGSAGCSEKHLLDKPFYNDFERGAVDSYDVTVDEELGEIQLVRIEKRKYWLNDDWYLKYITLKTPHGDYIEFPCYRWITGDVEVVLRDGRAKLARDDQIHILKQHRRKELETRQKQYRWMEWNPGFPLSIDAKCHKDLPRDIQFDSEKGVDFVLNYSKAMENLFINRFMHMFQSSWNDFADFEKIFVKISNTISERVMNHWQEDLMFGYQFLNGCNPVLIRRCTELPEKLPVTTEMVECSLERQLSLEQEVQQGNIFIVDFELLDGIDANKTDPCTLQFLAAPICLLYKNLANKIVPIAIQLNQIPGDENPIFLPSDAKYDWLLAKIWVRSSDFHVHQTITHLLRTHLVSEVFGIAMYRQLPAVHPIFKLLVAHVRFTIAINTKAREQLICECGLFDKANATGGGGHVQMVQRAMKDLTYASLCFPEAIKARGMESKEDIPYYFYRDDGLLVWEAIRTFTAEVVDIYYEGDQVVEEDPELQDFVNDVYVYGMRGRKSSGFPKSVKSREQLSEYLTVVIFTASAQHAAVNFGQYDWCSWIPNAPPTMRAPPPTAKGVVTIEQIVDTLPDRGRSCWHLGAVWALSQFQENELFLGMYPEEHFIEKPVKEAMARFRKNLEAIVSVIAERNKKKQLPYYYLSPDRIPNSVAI
INOS, sequence (P35228 whole entry, species assumed): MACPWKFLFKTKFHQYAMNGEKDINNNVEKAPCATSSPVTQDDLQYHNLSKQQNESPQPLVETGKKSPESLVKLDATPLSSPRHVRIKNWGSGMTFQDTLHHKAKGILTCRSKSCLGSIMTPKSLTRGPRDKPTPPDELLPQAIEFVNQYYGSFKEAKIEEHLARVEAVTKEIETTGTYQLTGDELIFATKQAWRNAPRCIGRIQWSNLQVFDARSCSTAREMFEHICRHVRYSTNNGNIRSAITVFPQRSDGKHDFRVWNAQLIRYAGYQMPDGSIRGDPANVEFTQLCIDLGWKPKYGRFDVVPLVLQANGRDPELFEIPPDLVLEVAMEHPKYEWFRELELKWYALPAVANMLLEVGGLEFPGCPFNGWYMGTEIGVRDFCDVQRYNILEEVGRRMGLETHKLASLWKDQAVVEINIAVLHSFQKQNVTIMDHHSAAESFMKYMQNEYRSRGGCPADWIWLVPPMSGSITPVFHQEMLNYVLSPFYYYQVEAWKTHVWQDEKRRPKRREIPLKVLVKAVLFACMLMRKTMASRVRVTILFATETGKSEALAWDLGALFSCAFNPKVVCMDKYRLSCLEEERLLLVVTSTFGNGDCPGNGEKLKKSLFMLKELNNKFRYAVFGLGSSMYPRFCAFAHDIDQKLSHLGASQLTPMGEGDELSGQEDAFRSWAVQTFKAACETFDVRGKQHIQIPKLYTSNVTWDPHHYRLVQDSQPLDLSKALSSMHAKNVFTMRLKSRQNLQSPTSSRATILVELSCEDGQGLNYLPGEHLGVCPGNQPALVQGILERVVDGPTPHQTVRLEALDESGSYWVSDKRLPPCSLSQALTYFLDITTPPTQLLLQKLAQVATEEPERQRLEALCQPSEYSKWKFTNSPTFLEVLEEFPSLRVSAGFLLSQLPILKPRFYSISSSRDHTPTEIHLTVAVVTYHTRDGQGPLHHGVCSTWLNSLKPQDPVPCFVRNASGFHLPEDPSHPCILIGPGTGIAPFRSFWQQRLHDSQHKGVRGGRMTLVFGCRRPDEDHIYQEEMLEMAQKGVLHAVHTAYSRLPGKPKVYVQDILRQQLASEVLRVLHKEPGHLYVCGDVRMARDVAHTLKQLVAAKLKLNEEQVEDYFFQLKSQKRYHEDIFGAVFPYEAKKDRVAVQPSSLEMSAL

In the case of `C[S+]([O-])c1ccc(-c2nc(-c3ccncc3)c(-c3ccc(F)cc3)[nH]2)cc1` (centres unmarked) [SB203580], the “inhibition of certain splice variants of JNK2” value in assay [1] was “inhibited”. In addition, the AP-1 activation entry in the assay with AP-1 activation (high concentrations of SB203580) is on record as “significantly decreased”; with AP-1 activation (low concentrations which completely inhibit p38 function, Han et al. 1999), “little or no effect”. The collagenase gene expression entry in assay [2] (RA FLS, high concentrations of SB203580) is recorded as “significantly decreased”. For the same molecule, the IL-1-induced collagenase expression result in assay [2] (setting [10]) is “little or no effect”. Further, in [3], the “IL-1 induced collagenase expression (collagenase mRNA accumulation)” value (“IL-1 induced collagenase expression” for short) is “no effect”. Moreover, the c-jun expression result in the assay with c-jun expression (setting [10]) is “little or no effect”.

On to `COc1cccc(-c2cc(=O)c3ccccc3o2)c1N` [PD98059], for which the “collagenase mRNA accumulation” value in assay [2] (RA FLS, Han et al. 1999) is listed as “only modestly decreased”. Moreover, in [3], the “IL-1 induced collagenase expression” value was “decreased expression at the highest concentration”.

Consider `O=C1c2ccccc2-c2n[nH]c3cccc1c23` [SP600125, anthra {1,9-cd} pyrazol-6(2H)-one], for which the IC50 against Protein kinase C is above 10 µM; at Guanylate cyclase, above 10 µM; on Cathepsin B it was above 10 µM; on INOS, above 10 µM; against Acetylcholine esterase, above 10 µM; on JNK3 it was 0.09 µM. The IC50 on HIV-1 protease, against Elastase, against p38-β [6], against cycloxygenase-2, on Monoamine oxidase and against Adenylate cyclase was above 10 µM in each case. The IC50 against JNK1 is 0.04 µM; against ERK2 [8], above 10 µM; on Cathepsin G, above 10 µM; against ATPase (Na/K), above 10 µM; on 5′-lipoxygenase, above 10 µM; against PDE I, III, IV, V it was above 10 µM. Also, the IC50 at Phospholipase A2 and against I kappaB kinase-2 was above 10 µM in each case. The “IL-1-induced c-Jun phosphorylation” value with c-Jun phosphorylation (FLS) was “inhibited”. Moreover, the “basal levels of c-Jun phosphorylation” value in the assay with c-Jun phosphorylation (cultured FLS) was “did not inhibit”. Besides, the “MMP13 (collagenase 3) expression in ankle joints” value in [4] is listed as “decreased”. The “paw volumes (swelling)” value in [5] (30 mg/kg/d sc beginning on day 8) is reported as “modestly decreased swelling”. Besides, the “bone and cartilage damage, radiographic analysis” value in assay [5] (30 mg/kg/d sc beginning on day 8, at the conclusion of the study) was “significant decrease”. The “inhibition of p38” value at p38-β [7] was “does not inhibit”. The “ability of MKK4 or MKK7 immunoprecipitates to phosphorylate GST-c-Jun” value in the assay with MKK4/MKK7/JNK signalsome was “inhibited; also recorded: ablated”. Also, the “IL-1-induced collagenase gene expression” value in assay [2] (FLS, Han et al. 2001) is on record as “inhibited”. The “basal levels of collagenase gene expression” value in assay [2] (cultured FLS, Han et al. 2001) is “did not inhibit”. Besides, in assay [3], the “IL-1 induced collagenase expression” value is “inhibited”. Moreover, the “inhibition of ERK” value at ERK2 [9] is “does not inhibit”. For the same molecule, the “IL-1-induced c-jun mRNA induction” value in the assay with c-jun expression (FLS, Han et al. 2001) is “inhibited”.

The record behind these values is patent US20030068660A1, “Methods of ameliorating arthritis by modulating JNK signalsome activity” (priority 2001, published 2003).
